In the NIST ThermoML archive (doi:10.1016/j.jct.2006.07.018):
Numbers after ± are expanded uncertainties.

Assay: molar heat capacity at constant pressure; mn = molality of the nth substance listed, in mol/kg
Conditions: 350 kPa, Liquid, high-precision DSC

CSCC[C@H](N)C(=O)O [L-methionine] + O
molar heat capacity at constant pressure [J/K/mol]
Conditions	m1 = 0.0125	m1 = 0.025	m1 = 0.05	m1 = 0.0997	m1 = 0.1501	m1 = 0.1929
278.15 K	75.75 ± 0.15	75.8 ± 0.15	75.86 ± 0.15	76.01 ± 0.15	76.17 ± 0.15	76.3 ± 0.15
283.15 K	75.58 ± 0.15	75.64 ± 0.15	75.71 ± 0.15	75.87 ± 0.15	76.04 ± 0.15	76.19 ± 0.15
288.15 K	75.47 ± 0.15	75.53 ± 0.15	75.6 ± 0.15	75.78 ± 0.15	75.96 ± 0.15	76.12 ± 0.15
293.15 K	75.39 ± 0.15	75.46 ± 0.15	75.53 ± 0.15	75.72 ± 0.15	75.92 ± 0.15	76.08 ± 0.15
298.15 K	75.34 ± 0.15	75.41 ± 0.15	75.49 ± 0.15	75.69 ± 0.15	75.89 ± 0.15	76.06 ± 0.15
303.15 K	75.31 ± 0.15	75.38 ± 0.15	75.46 ± 0.15	75.67 ± 0.15	75.88 ± 0.15	76.05 ± 0.15
308.15 K	75.3 ± 0.15	75.37 ± 0.15	75.45 ± 0.15	75.66 ± 0.15	75.88 ± 0.15	76.05 ± 0.15
313.15 K	75.3 ± 0.15	75.37 ± 0.15	75.46 ± 0.15	75.67 ± 0.15	75.9 ± 0.15	76.06 ± 0.15
318.15 K	75.31 ± 0.15	75.38 ± 0.15	75.47 ± 0.15	75.68 ± 0.15	75.92 ± 0.15	76.09 ± 0.15
323.15 K	75.33 ± 0.15	75.4 ± 0.15	75.5 ± 0.15	75.71 ± 0.15	75.95 ± 0.15	76.12 ± 0.15
328.15 K	75.37 ± 0.15	75.44 ± 0.15	75.53 ± 0.15	75.75 ± 0.15	75.99 ± 0.15	76.16 ± 0.15
333.15 K	75.41 ± 0.15	75.48 ± 0.15	75.57 ± 0.15	75.79 ± 0.15	76.03 ± 0.15	76.21 ± 0.15
